The text below walks through data of patent US20240343747A1, “Heteroaryl compounds as inhibitors of TYK2, composition and application thereof” (Accro Bioscience (HK) Limited, priority 2021, published 2024).

Structures are written as SMILES.

The target in one assay is TYK2 (Mus musculus (Mouse), UniProt Q9R117). Nature of the assay: Luciferase assay in L929 ISRE cells stimulated with IFN-α. It counts as cell-based. To be noted: IFN-α 100 ng/mL; for inhibition at 0.1 µM: 100 nM, read-out: Inhibitory activity % (100 nM); for inhibition at 1 µM: 1000 nM, read-out: Inhibitory activity % (1000 nM); for inhibition at 0.01 µM: 10 nM, read-out: Inhibitory activity % (10 nM); for inhibition at 0.05 µM: 50 nM, read-out: Inhibitory activity % (50 nM); for inhibition at 0.2 µM: 200 nM, read-out: Inhibitory activity % (200 nM). As to the method:
• 1. L929 ISRE cells (5000 cells/well) were seeded on 96-well plates and incubated overnight at room temperature; • 2. The cells were pretreated by adding different concentrations (10 nM, 50 nM, 100 nM, 200 nM or 1000 nM) of the test compounds for 2 hours; • 3. Added IFN-α (100 ng/mL) to stimulate cells for 6 hours; • 4. Removed the upper medium, add PBS (100 μL) and washed, then removed PBS; • 5. Added PLB lysis solution (50 μL) to each well, shook the well for 15 minutes; • 6. Transferred PLB lysis solution (30 μL) to a new 96-well whiteboard, added LAR II reagent (LAR II), then quickly read the […]; • 7. Added Stop & Glo reagent (30 μL), then read the 450 nm OD value using the plate washer. • 8. The final results in Table 3 were the OD value in step 6/OD value in step 7.

Another assay has as its target TYK2 JH2 (Homo sapiens (Human), UniProt P29597). Nature of the assay: Competitive binding assay (kinase-tagged phage, qPCR), TYK2 JH2. As to the method: For most assays, kinase-tagged T7 phage strains were prepared in an E. coli host derived from the BL21 strain. E. coli were grown to log-phase and infected with T7 phage and incubated with shaking at 32° C. until lysis. The lysates were centrifuged and filtered to remove cell debris. The remaining kinases were produced in HEK-293 cells and subsequently tagged with DNA for qPCR detection. Streptavidin coated magnetic beads were treated with biotinylated small molecule ligands for 30 minutes at room temperature to generate affinity resins for kinase assays. The liganded beads were blocked with excess biotin and washed with blocking buffer (SeaBlock (Pierce), 1% BSA, 0.05% Tween 20, 1 mM DTT) to remove unbound ligand and to reduce non-specific binding. […] Test compounds were prepared as 111X stocks in 100% DMSO. Dissociation constants (Kds) were determined using an 11-point 3-fold compound dilution series with three DMSO control points. All compounds for Kd measurements are distributed by acoustic transfer (non-contact dispensing) in 100% DMSO. The compounds were then diluted directly into the assays such that the final concentration of DMSO was 0.9%. All reactions performed in polypropylene 384-well plate. Each was a final volume of 0.02 ml. The assay plates were incubated at room temperature with shaking for 1 hour and the affinity beads were washed with wash buffer (1×PBS, 0.05% Tween 20). The beads were then re-suspended in elution buffer (1×PBS, 0.05% Tween 20, 0.5 μM nonbiotinylated affinity ligand) and incubated at room temperature with shaking for 30 minutes. The kinase concentration in the eluates was measured by qPCR.
An 11-point 3-fold serial dilution of each test compound was prepared in 100% DMSO at 100× final test concentration and subsequently diluted to 1× in the assay (final DMSO concentration=1%). Most Kds were determined using a compound top concentration=30,000 nM. If the initial Kd determined was <0.5 nM (the lowest concentration tested), the measurement was repeated with a serial dilution starting at a lower top concentration.
Binding constants (Kds) were calculated with a standard dose-response curve using the Hill equation: […]
The Hill Slope was set to −1.
Curves were fitted using a non-linear least square fit with the Levenberg-Marquardt algorithm.
(In general: Quantitative PCR measures a nucleic acid by following its amplification.)

TYK2, sequence (Q9R117 whole entry): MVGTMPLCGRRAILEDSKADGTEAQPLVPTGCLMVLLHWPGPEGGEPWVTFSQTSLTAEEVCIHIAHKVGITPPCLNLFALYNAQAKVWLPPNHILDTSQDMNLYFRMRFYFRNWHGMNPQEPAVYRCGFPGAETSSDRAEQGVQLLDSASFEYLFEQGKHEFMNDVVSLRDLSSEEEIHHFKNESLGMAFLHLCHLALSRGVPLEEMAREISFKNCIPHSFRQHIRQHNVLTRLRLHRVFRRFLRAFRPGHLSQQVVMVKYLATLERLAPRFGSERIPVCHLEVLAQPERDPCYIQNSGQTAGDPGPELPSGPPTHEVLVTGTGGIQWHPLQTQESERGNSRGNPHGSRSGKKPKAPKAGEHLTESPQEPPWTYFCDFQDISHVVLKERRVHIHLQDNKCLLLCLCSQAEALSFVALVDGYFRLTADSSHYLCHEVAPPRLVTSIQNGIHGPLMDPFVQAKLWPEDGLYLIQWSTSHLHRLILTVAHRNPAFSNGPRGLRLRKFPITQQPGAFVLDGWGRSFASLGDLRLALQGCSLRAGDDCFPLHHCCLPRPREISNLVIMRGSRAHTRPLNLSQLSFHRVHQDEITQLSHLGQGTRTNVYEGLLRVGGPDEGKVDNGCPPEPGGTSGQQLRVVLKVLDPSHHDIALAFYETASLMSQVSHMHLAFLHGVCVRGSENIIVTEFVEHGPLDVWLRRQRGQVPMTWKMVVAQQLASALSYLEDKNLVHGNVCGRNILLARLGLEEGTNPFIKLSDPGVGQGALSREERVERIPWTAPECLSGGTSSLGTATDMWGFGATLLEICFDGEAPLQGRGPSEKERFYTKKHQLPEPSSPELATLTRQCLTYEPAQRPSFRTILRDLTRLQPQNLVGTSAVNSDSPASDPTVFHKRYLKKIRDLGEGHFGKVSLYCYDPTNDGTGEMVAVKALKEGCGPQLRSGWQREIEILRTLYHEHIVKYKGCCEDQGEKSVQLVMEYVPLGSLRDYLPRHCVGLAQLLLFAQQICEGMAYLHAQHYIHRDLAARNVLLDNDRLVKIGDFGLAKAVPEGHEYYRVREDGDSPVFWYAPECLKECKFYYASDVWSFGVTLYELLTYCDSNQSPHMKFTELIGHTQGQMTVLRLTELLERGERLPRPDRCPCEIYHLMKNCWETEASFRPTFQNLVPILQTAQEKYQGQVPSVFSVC
TYK2 JH2, sequence (P29597 589-875): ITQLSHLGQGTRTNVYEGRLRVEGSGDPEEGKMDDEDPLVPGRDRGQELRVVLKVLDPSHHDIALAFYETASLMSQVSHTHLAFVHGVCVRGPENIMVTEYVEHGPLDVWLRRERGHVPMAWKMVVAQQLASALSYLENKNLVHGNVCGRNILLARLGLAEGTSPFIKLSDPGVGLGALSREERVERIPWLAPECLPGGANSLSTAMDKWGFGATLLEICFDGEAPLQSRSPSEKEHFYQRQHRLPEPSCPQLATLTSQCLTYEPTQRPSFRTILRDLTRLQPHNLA

For the compound `CCC(=O)c1cnc(NC(=O)C2CC2)cc1Nc1cccc(-c2cc(P(=O)(CC)CC)n(C)n2)c1OC` [Compound B24], on TYK2, the inhibition at 0.1 µM was found to be 31% and the inhibition at 1 µM came out at 93%. For the same compound, the dissociation constant (Kd) at TYK2 JH2 amounted to 0.03 nM.
Consider `CCC(=O)c1cnc(NC(=O)C2CC2)cc1Nc1cccc(-c2nc(P(C)(C)=O)ns2)c1OC` [Compound B1, N-(4-((3-(3-(dimethylphosphoryl)-1,2,4-thiadiazol-5-yl)-2-methoxyphenyl)amino)-5-propionylpyridin-2-yl)cyclopropanecarboxamide], for which, on TYK2, the inhibition at 0.01 µM worked out at 0%, the inhibition at 0.1 µM is 0% and the inhibition at 1 µM turned out to be 0%.
Consider `CCC(=O)c1cnc(NC(=O)C2CC2)cc1Nc1cccc(-c2cc(P(C)(C)=O)n(C)n2)c1F` [Compound B12], for which, at TYK2, the inhibition at 1 µM came to 0%.
Take `CCC(=O)c1cnc(NC(=O)C2CC2)cc1Nc1cccc(-c2ccc(P(C)(C)=O)nn2)c1OC` [Compound B8]: the inhibition at 1 µM at TYK2 was 33%.
For the compound `[2H]C([2H])([2H])n1nc(-c2ccnc(Nc3cc(NC(=O)C4CC4)ncc3C(=O)CC)c2OC)cc1P(C)(C)=O` [Compound B35], the inhibition at 1 µM on TYK2 worked out at 60%. Besides, at TYK2 JH2, the dissociation constant Kd worked out at 0.025 nM.
For `CCC(=O)c1cnc(NC(=O)C2CC2)cc1Nc1cccc(-c2cc(P(C)(C)=O)nn2C)c1OC` [Compound B9], the inhibition at 1 µM at TYK2 is 40%.
In the case of `[2H]C([2H])([2H])NC(=O)c1nnc(NC(=O)C2CC2)cc1Nc1cccc(-c2cc(P(=O)(CC)CC)n(C)n2)c1OC` [Compound B45], on TYK2, the inhibition at 0.05 µM stood at 44%, the inhibition at 0.2 µM was 83% and the inhibition at 1 µM stood at 95%.
With `CCC(=O)c1cnc(NC(=O)C2CC2)cc1Nc1cccc(-c2cccc(P(C)(C)=O)c2)c1OC` [Compound B7], the inhibition at 1 µM on TYK2 was 46%.
For `CCC(=O)c1cnc(NC(=O)C2CC2)cc1Nc1nccc(-c2cc(P(=O)(CC)CC)n(C)n2)c1OC` [Compound B29], the inhibition at 1 µM on TYK2 is 93%. For the same compound, the Kd on TYK2 JH2 stood at 0.01 nM.
For `CCC(=O)c1cnc(NC(=O)C2CC2)cc1Nc1cccc(-c2ccccc2P(C)(C)=O)c1OC` [Compound B10], on TYK2, the inhibition at 1 µM was found to be 50%.
With `[2H]C([2H])([2H])n1nc(-c2cccc(Nc3cc(NC(=O)C4CC4)ncc3C(=O)CC)c2OC)cc1P(=O)(CC)CC` [Compound B34], the inhibition at 1 µM on TYK2 stood at 87%. Besides, the Kd on TYK2 JH2 was 0.044 nM.
With `CCC(=O)c1nnc(NC(=O)C2CC2)cc1Nc1cc(F)cc(-c2cc(P(C)(C)=O)n(C)n2)c1OC` [Compound B25], at TYK2, the inhibition at 1 µM was determined as 13%.
The same measure, in the same setting: with `CCC(=O)c1cnc(NC(=O)C2CC2)cc1Nc1cccc(-c2cc(P(C)(C)=O)n(C)n2)c1C` [Compound B14] the figure was 27%.
For the compound `CCC(=O)c1nnc(NC(=O)C2CC2)cc1Nc1cccc(-c2cc(P(C)(C)=O)n(CC)n2)c1OC` [Compound B31], the inhibition at 1 µM on TYK2 was 26%.
`CCC(=O)c1cnc(NC(=O)C2CC2)cc1Nc1ncnc(-c2cc(P(=O)(C3CC3)C3CC3)n(C)n2)c1OC` [Compound B46, N-(4-((6-(5-(dicyclopropylphosphoryl)-1-methyl-1H-pyrazol-3-yl)-5-methoxypyrimidin-4-yl)amino)-5-propionylpyridin-2-yl)cyclopropanecarboxamide]: on TYK2, the inhibition at 0.05 µM was 70%, the inhibition at 0.2 µM was 88% and the inhibition at 1 µM was 96%.
Turning to `CCC(=O)c1cnc(NC(=O)C2CC2)cc1Nc1cc(F)cc(-c2cc(P(=O)(CC)CC)n(C)n2)c1OC` [Compound B32], the inhibition at 1 µM at TYK2 is 88%. This compound also displayed a Kd on TYK2 JH2 of 0.025 nM.
In the case of `[2H]C([2H])([2H])NC(=O)c1nnc(NC(=O)C2CC2)cc1Nc1cccc(-c2cc(P(C)(C)=O)n(C)n2)c1OC` [Compound B42], on TYK2, the inhibition at 1 µM was 65%.
Consider `CCC(=O)c1cnc(NC(=O)C2CC2)cc1Nc1cccc(-c2ccc(P(C)(C)=O)nc2)c1OC` [Compound B21], for which, at TYK2, the inhibition at 0.1 µM was 6% and the inhibition at 1 µM worked out at 49%.
As for `CCC(=O)c1cnc(NC(=O)C2CC2)cc1Nc1cc(F)cc(-c2cc(P(C)(C)=O)n(C)n2)c1OC` [Compound B17], at TYK2, the inhibition at 0.01 µM turned out to be 25%, the inhibition at 0.1 µM stood at 45% and the inhibition at 1 µM came out at 67%.
With `CCC(=O)c1cnc(NC(=O)C2CC2)cc1Nc1cccc(-c2cc(P(C)(C)=O)n(C)n2)c1C#N` [Compound B20], on TYK2, the inhibition at 0.01 µM stood at 7%, the inhibition at 0.1 µM worked out at 8% and the inhibition at 1 µM amounted to 20%.
In the case of `CCC(=O)c1nnc(NC(=O)C2CC2)cc1Nc1cccc(-c2cc(P(C)(C)=O)n(C)n2)c1OC` [Compound B18, N-(5-((3-(5-(dimethylphosphoryl)-1-methyl-1H-pyrazol-3-yl)-2-methoxyphenyl)amino)-6-propionylpyridazin-3-yl)cyclopropanecarboxamide], on TYK2, the inhibition at 1 µM was found to be 42%.
For `CNC(=O)c1nnc(NC(=O)C2CC2)cc1Nc1cccc(-c2cc(P(=O)(C3CC3)C3CC3)n(C)n2)c1OC` [Compound B44], the inhibition at 1 µM at TYK2 worked out at 81%.
With `CCC(=O)c1cnc(NC(=O)C2CC2)cc1Nc1nccc(-c2ncc(P(=O)(CC)CC)cn2)c1OC` [Compound B36], on TYK2, the inhibition at 1 µM was 75%.
Consider `CNC(=O)c1nnc(NC(=O)C2CC2)cc1Nc1cccc(-c2cc(P(C)(C)=O)n(C)n2)c1OC` [Compound B39], for which, at TYK2, the inhibition at 0.1 µM is 34% and the inhibition at 1 µM came to 80%. This compound showed a Kd on TYK2 JH2 of 0.0064 nM.
As to `CCC(=O)c1cnc(NC(=O)C2CC2)cc1Nc1nccc(-c2cc(P(C)(C)=O)n(C)n2)c1OC` [Compound B19, N-(4-((4-(5-(dimethylphosphoryl)-1-methyl-1H-pyrazol-3-yl)-3-methoxypyridin-2-yl)amino)-5-propionylpyridin-2-yl)cyclopropanecarboxamide], on TYK2, the inhibition at 0.01 µM was 41%, the inhibition at 0.1 µM worked out at 74% and the inhibition at 1 µM was determined as 88%. In addition, the Kd on TYK2 JH2 was found to be 0.075 nM.
In the case of `CCC(=O)c1cnc(NC(=O)C2CC2)cc1Nc1cccc(-c2cc(P(C)(C)=O)cs2)c1OC` [Compound B27], the inhibition at 1 µM at TYK2 is 38%.
Same read-out and setting: as for `CCP(=O)(CC)c1cc(-c2cccc(Nc3cc(NC(=O)C4CC4)nnc3C(=O)NC)c2OC)nn1C` [Compound B43], the figure is 84%; as for `CCC(=O)c1cnc(NC(=O)C2CC2)cc1Nc1cccc(-c2nc(P(C)(C)=O)cs2)c1OC` [Compound B6], 36%.
Turning to `CCC(=O)c1cnc(NC(=O)C2CC2)cc1Nc1cc(F)cc(-c2ncc(P(C)(C)=O)cn2)c1OC` [Compound B23], on TYK2, the inhibition at 0.1 µM stood at 8% and the inhibition at 1 µM was found to be 46%.
Consider `[2H]C([2H])([2H])n1nc(-c2ccnc(Nc3cc(NC(=O)C4CC4)ncc3C(=O)CC)c2OC)cc1P(=O)(CC)CC` [Compound B33], for which, at TYK2, the inhibition at 1 µM came to 86%. The compound also displayed a dissociation constant (Kd) on TYK2 JH2 of 0.056 nM.
In the case of `CNC(=O)c1nnc(NC(=O)C2CC2)cc1Nc1cccc(-c2ncc(P(C)(C)=O)cn2)c1OC` [Compound B40], on TYK2, the inhibition at 0.1 µM amounted to 33% and the inhibition at 1 µM is 58%.
`CCC(=O)c1cnc(NC(=O)C2CC2)cc1Nc1cccc(-c2cc(P(C)(C)=O)n(C)n2)c1` [Compound B15]: on TYK2, the inhibition at 1 µM came out at 45%.
The same measure, in the same setting: as for `CCC(=O)c1cnc(NC(=O)C2CC2)cc1Nc1cccc(-c2cc(P3(=O)CCCC3)n(C)n2)c1OC` [Compound B30], the figure is 75%.
For `CCC(=O)c1cnc(NC(=O)C2CC2)cc1Nc1cccc(-c2cc(P(C)(C)=O)n(C3CC3)n2)c1OC` [Compound B16], at TYK2, the inhibition at 0.01 µM is 35%, the inhibition at 0.1 µM came to 38% and the inhibition at 1 µM amounted to 55%.
On to `CCC(=O)c1nnc(NC(=O)C2CC2)cc1Nc1cccc(-c2ccc(P(C)(C)=O)cn2)c1OC` [Compound B28], for which the inhibition at 1 µM at TYK2 amounted to 35%.

By Kd is commonly meant the concentration at which binding is half-saturated. Read a low Kd as higher affinity.
